In patent publication US9556191B2, “Aminoquinazoline derivatives and their salts and methods of use thereof” (SUNSHINE LAKE PHARMA CO., LTD, priority 2013, dated 2017):

Tests used:
[1] = target: EGFR (human epidermal growth factor receptor) (Homo sapiens (Human), UniProt P00533); assay: In vitro kinase inhibitory activity, EGFR; type: biochemical
Experimental: (§1) Stop buffer was prepared from 100 mM HEPES, pH 7.5, 0.015% Brij-35, 0.2% Coating Reagent #3, and 50 mM EDTA.
(§2) Kinase reaction was performed according to the following procedures: (1) 2.5× kinase solution was prepared by adding kinase into 1× kinase base buffer; (2) 2.5× peptide solution was prepared by adding FAM-labeled peptide and ATP into 1× kinase base buffer; (3) 2.5× kinase solution (10 μL) was added to each well of the 384-well assay plate containing 5 μL of compound in 10% DMSO and then the assay plate was incubated at room temperature for 10 minutes; (4) 2.5× peptide solution (10 μL) was added to each well of the 384-well assay plate; and (5) stop buffer (25 μL) was added to stop the kinase reaction after incubation at 28° C. for a specified period of time.
(§3) Multifunctional microplate reader (BMG LABTECH, PHER Astar FS) with a 320 nm excitation wavelength was used to read and collected the data of by absorbing light at […], which was converted from the rate of 665 signal/620 signal.
(§4) Conversion data were copied, and then converted to inhibition values with the following formula: percent inhibition=(max−conversion)/(max−min)*100 where “max” stands for the DMSO control value, “conversion” stands for the sample value and “[…]” stands for the no-kinase control value. The data were fitted in XLfit to obtain IC50 values.

[2] = target: HER2 (human epidermal growth factor receptor 2) (Homo sapiens (Human), UniProt P04626); assay: In vitro kinase inhibitory activity, HER-2; type: biochemical
Chain of HER2 (human epidermal growth factor receptor 2) (P04626 23-1255): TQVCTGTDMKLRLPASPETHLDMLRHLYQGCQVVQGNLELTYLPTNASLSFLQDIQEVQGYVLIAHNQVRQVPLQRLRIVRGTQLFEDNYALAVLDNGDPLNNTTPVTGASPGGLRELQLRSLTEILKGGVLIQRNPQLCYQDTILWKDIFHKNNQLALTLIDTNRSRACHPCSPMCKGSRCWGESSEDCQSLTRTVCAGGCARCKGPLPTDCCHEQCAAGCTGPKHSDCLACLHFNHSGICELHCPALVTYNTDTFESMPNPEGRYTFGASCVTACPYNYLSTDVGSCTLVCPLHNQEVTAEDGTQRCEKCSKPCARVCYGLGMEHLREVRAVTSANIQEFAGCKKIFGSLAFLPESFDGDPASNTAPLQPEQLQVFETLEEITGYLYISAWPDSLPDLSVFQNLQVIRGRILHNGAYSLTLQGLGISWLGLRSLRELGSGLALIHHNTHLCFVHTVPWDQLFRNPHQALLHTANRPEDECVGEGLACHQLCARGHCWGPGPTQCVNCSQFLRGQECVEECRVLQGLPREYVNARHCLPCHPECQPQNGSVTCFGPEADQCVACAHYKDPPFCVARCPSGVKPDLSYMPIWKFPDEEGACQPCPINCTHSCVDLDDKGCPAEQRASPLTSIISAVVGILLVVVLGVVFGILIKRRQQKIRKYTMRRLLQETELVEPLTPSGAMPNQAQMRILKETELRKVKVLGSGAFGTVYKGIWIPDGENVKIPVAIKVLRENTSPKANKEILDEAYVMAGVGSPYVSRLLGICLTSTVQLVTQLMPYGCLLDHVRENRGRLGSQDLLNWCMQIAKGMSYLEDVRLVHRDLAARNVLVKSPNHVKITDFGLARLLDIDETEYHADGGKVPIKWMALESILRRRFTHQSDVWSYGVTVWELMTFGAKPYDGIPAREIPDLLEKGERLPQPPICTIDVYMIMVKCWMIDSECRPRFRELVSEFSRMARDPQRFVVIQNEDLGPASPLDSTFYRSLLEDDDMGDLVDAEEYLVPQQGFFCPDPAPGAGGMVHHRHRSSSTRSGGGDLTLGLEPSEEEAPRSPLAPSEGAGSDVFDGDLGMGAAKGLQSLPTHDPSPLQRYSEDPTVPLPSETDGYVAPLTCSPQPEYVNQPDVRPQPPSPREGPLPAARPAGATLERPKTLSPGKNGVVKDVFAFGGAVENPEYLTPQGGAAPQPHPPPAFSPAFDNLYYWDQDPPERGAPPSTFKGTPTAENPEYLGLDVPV
Experimental: as §1
as §2, with “time. […]” for “time.”
as §4

[3] = target: EGFR T790M (human epidermal growth factor receptor T790M mutation) (Homo sapiens (Human), UniProt P00533, T790M); assay: In vitro kinase inhibitory activity, EGFR T790M; type: biochemical
Chain of EGFR T790M (human epidermal growth factor receptor T790M mutation) (P00533 25-1210 T790M): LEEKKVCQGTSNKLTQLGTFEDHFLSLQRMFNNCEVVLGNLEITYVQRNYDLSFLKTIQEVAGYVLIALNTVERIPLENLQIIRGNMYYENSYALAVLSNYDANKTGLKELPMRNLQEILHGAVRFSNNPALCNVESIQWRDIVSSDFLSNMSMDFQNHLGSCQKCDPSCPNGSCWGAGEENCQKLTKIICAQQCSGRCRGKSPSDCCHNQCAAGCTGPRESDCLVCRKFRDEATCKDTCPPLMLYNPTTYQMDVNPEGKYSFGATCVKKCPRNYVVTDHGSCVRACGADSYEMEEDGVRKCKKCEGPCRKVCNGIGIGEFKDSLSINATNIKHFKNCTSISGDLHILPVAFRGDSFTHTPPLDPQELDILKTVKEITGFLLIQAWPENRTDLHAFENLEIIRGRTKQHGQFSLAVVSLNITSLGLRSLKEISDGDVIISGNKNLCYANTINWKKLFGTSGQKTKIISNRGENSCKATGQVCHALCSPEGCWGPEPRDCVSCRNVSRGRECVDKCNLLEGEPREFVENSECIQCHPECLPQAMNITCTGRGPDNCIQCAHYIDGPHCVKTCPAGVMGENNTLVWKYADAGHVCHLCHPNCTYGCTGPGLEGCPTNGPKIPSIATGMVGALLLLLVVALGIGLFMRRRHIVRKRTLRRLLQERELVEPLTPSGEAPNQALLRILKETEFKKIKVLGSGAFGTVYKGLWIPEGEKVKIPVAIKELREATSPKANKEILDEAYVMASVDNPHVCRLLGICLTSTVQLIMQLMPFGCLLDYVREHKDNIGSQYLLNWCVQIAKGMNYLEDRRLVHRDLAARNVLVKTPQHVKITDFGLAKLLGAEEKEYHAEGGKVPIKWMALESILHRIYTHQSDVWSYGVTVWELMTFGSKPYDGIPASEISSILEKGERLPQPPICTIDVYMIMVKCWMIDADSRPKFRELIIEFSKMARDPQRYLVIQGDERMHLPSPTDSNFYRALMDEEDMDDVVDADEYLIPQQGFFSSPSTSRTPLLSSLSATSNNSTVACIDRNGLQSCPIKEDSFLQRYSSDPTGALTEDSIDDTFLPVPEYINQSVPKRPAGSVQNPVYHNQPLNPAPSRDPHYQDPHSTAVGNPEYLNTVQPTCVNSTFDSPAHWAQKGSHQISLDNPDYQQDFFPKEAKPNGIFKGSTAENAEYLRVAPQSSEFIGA
Experimental: as §1, §2, §3, §4

[4] = Rat PK (pharmacokinetics after iv and po administration); type: in vivo; conditions: male, SD, plasma; for Vd: read-out: Vss; for bioavailability: po 5 vs iv 2 (g/kg [sic]; mg/kg in method), read-out: F (bioavailability)
Excerpt: Materials used include Propranolol (internal standard), methyl alcohol, ammonium acetate, K2EDTA (potassium ethylenediaminetetraacetate), methane acid, acetonitrile, MTBE (methyl tert-butyl ether), Cremophor EL (polyoxyethylated castor oil), KolliphorHS 15 (polyethylene glycol 12-hydroxystearate), DMSO (dimethylsulfoxide), PEG400 (polyethylene glycol 400) and SD rat (male, 180-220 g, 7-8 weeks old, purchased from Hunan Slack King of Laboratory Animal Co., Ltd.), all of which are commercially available.
Each test compound prepared in above examples was completely dissolved in a mixture of 5% DMSO, 5% KolliphorHS 15 and 90% saline.
(1) The test sample stock solution was prepared by dissolving an accurately weighed test sample in DMSO followed by dilution to the concentration of 1 mg/mL with acetonitrile. The stock solution was stored under the condition of −20° C. for later use.
(2) Internal standard solution was prepared by diluting a certain amount of the Propranolol stock solution in the concentration of 1 mg/mL to 100 ng/mL with water.
Samples treated with liquid-liquid extraction and chromatographic separation were analyzed by triple quadrupole tandem mass spectrometer in multiple reaction monitoring (MRM) mode for quantitative analysis.
Pretreatment of plasma sample was performed according to the following procedures: (1) plasma sample (30 μL) was precisely measured, and internal standard (250 μL) was then added to the plasma sample which was then mixed by vortexing; (2) the sample was extracted once with 1 mL of MTBE and then centrifuged at 13000 rpm for 2 minutes at 4° C.; (3) supernatant (800 μL) was aspirated and dried with 96 holes nitrogen gas blowing; (4) the residue was dissolved with 150 μL of a mixture of methanol and water (v/v=1/1) and then mixed by vortexing; and (5) sampling: sample quantity was 8 μL.
Preparation of standard sample was performed according to the following procedures: (1) a pre-determined amount of the compound stock solution was precisely measured, and then was diluted to standard series of solution with acetonitrile; (2) each of the standard solution (20 μL) prepared above was precisely measured and to each was added 180 μL of blank plasma; (3) each sample was mixed by vortexing to obtain series of standard samples in which the plasma concentration was 3, 5, 10, 30, 100, 300, 1000, 3000, 5000 or 10000 ng/mL; and (4) standard curve was established.
The content of each test compound in rat plasma after administration was determined by LC/MS/MS.
Noncompartmental analysis to calculate pharmacokinetic parameters was performed with WinNonlin 6.1 software.

[5] = iv(2 g/kg) [sic], method says 2 mg/kg
[6] = po(5 g/kg) [sic], method says 5 mg/kg

Chain of EGFR (human epidermal growth factor receptor) (P00533 25-1210): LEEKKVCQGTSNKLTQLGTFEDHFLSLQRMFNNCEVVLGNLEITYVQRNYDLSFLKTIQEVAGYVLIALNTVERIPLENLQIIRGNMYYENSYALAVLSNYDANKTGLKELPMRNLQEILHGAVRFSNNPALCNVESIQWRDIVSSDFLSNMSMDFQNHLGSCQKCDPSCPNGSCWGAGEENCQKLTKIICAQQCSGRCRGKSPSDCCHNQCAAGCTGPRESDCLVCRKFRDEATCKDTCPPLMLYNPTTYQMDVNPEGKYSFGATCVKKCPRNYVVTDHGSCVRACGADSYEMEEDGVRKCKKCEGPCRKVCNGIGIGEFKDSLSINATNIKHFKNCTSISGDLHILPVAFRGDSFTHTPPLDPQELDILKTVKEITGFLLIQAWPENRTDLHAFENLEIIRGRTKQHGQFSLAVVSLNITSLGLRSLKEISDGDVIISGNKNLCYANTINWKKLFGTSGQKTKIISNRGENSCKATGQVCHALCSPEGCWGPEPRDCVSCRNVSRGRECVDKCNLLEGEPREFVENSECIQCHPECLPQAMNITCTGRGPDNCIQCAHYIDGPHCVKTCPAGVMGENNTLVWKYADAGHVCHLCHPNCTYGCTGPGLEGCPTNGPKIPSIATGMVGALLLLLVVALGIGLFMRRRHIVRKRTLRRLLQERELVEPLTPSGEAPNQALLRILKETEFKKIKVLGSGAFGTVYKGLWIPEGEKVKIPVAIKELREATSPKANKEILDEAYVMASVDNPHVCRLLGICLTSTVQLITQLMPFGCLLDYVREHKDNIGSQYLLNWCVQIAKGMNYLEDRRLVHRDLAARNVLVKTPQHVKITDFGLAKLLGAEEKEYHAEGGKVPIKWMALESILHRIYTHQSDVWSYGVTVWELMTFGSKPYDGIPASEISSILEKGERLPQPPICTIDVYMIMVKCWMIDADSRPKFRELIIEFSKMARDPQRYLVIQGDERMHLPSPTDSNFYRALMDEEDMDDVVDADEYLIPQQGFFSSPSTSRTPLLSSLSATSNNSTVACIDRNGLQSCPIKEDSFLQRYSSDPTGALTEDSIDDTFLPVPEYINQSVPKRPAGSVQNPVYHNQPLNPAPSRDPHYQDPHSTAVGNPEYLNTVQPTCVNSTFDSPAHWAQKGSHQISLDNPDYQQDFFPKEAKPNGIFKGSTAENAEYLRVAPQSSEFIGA

| Structure (SMILES) | IC50 [1] | IC50 [2] | IC50 [3] | AUC(0-t) [4, 5] | Cmax [4, 5] | half-life [4, 5] | Vd [4, 5] | AUC(0-t) [4, 6] | Cmax [4, 6] | half-life [4, 6] | bioavailability [4] |
| --- | --- | --- | --- | --- | --- | --- | --- | --- | --- | --- | --- |
| CCOc1cc2ncnc(Nc3ccc(F)c(Cl)c3)c2cc1NC(=O)/C=C/CN1C[C@@H]2OCCO[C@@H]2C1 [Example 3, (E)-N-(4-((3-Chloro-4-fluorophenyl)amino)-7-ethoxyquinazolin-6-yl)-4-((4aR,7aS)-tetrahydro-2H-[1,4]dioxin[2,3-c]pyrrol-6(3H)-yl)but-2-enamide] | 6.4 nM | 8.1 nM | 6.2 nM | – | – | – | – | – | – | – | – |
| O=C(/C=C/CN1C[C@@H]2OCCO[C@@H]2C1)Nc1cc2c(Nc3ccc(F)c(Cl)c3)ncnc2cc1O[C@H]1CCOC1 [Example 5, (E)-N-(4-((3-Chloro-4-fluorophenyl)amino)-7-(((S)-tetrahydrofuran-3-yl)oxy)quinazolin-6-yl)-4-((4aR,7aS)-tetrahydro-2H-[1,4]dioxino[2,3-c]pyrrol-6(3H)-yl)but-2-enamide] | 3.6 nM | 11.7 nM | 6.8 nM | – | – | – | – | – | – | – | – |
| COCCOc1cc2ncnc(Nc3ccc(F)c(Cl)c3)c2cc1NC(=O)/C=C/CN1C[C@@H]2OCCO[C@@H]2C1 [Example 6, (E)-N-(4-((3-Chloro-4-fluorophenyl)amino)-7-(2-methoxyethoxy)quinazolin-6-yl)-4-((4aR,7aS)-tetrahydro-2H-[1,4]dioxino[2,3-c]pyrrol-6(3H)-yl)but-2-enamide] | 1.8 nM | 10.4 nM | 8.7 nM | – | – | – | – | – | – | – | – |
| O=C(/C=C/CN1C[C@@H]2OCCO[C@@H]2C1)Nc1cc2c(Nc3ccc(F)c(Cl)c3)ncnc2cc1OCC(F)(F)F [Example 7, (E)-N-(4-((3-Chloro-4-fluorophenyl)amino)-7-(2,2,2-trifluoroethoxy)quinazolin-6-yl)-4-((4aR,7aS)-tetrahydro-2H-[1,4]dioxino[2,3-c]pyrrol-6(3H)-yl)but-2-enamide] | 15.4 nM | 44 nM | 22.6 nM | – | – | – | – | – | – | – | – |
| [2H]C([2H])([2H])Oc1cc2ncnc(Nc3ccc(F)c(Cl)c3)c2cc1NC(=O)/C=C/CN1C[C@@H]2OCCO[C@@H]2C1 [Example 20, (E)-N-(4-((3-Chloro-4-fluorophenyl)amino)-7-(methoxy-D3)quinazolin-6-yl)-4-((4aR,7aS)-tetrahydro 2H-[1,4]dioxino[2,3-c]pyrrol-6(3H)-yl)but-2-enamide] | – | – | – | 1450 ng·h/mL | 868 ng/mL | 2.22 h | 3.71 L/kg | 3190 ng·h/mL | 336 ng/mL | 3.6 h | – |
| O=C(/C=C/CN1C[C@@H]2OCCO[C@@H]2C1)Nc1ccc2ncnc(Nc3ccc(OCc4cccc(F)c4)c(Cl)c3)c2c1 [Example 21, (E)-N-(4-((3-Chloro-4-((3-fluorobenzyl)oxy)phenyl)amino)quinazolin-6-yl)-4-((4aR,7aS)-tetrahydro-2H-[1,4]dioxino[2,3-c]pyrrol-6(3H)-yl)but-2-enamide] | 15 nM | 3.5 nM | 317 nM | – | – | – | – | – | – | – | – |
| O=C(/C=C/CN1C[C@@H]2OCCO[C@@H]2C1)Nc1ccc2ncnc(Nc3ccc(OCc4ccccn4)c(Cl)c3)c2c1 [Example 22, (E)-N-(4-((3-Chloro-4-(pyridin-2-ylmethoxy)phenyl)amino)quinazolin-6-yl)-4-((4aR,7aS)-tetrahydro-2H-[1,4]dioxino[2,3-c]pyrrol-6(3H)-yl)but-2-enamide] | 22 nM | 1.9 nM | 47.3 nM | – | – | – | – | – | – | – | – |
| COc1cc2ncnc(Nc3ccc(OCc4ccccn4)c(Cl)c3)c2cc1NC(=O)/C=C/CN1C[C@@H]2OCCO[C@@H]2C1 [Example 23, (E)-N-(4-((3-Chloro-4-(pyridin-2-ylmethoxy)phenyl)amino)-7-methoxyquinazolin-6-yl)-4-((4 aR,7aS)tetrahydro-2H-[1,4]dioxino[2,3-c]pyrrol-6(3H)-yl)but-2-enamide] | 60.4 nM | 1.8 nM | 8.5 nM | 7560 ng·h/mL | 2770 ng/mL | 3.06 h | 0.88 L/kg | 13900 ng·h/mL | 1930 ng/mL | 2.77 h | 73.5% |
| O=C(/C=C/CN1C[C@@H]2OCCO[C@@H]2C1)Nc1ccc2ncnc(Nc3ccc4c(cnn4Cc4cccc(F)c4)c3)c2c1 [Example 26, (E)-N-(4-((1-(3-Fluorobenzyl)-1H-indazol-5-yl)amino)quinazolin-6-yl)-4-((4aR,7aS)-tetrahydro-2H-[1,4]dioxin[2,3-c]pyrrol-6(3H)-yl)but-2-enamide] | 14 nM | 1.6 nM | 89.3 nM | – | – | – | – | – | – | – | – |
| COc1cc2ncnc(Nc3ccc(OCc4cccc(F)c4)c(Cl)c3)c2cc1NC(=O)/C=C/CN1C[C@@H]2OCCO[C@@H]2C1 [Example 29, (E)-N-(4-((3-Chloro-4-((3-fluorobenzyl)oxy)phenyl)amino)-7-methoxyquinazolin-6-yl)-4-((4aR,7aS)-tetrahydro-2H-[1,4]dioxino[2,3-c]pyrrol-6(3H)-yl)but-2-enamide] | – | 3.7 nM | – | – | – | – | – | – | – | – | – |
| CCOc1cc2ncnc(Nc3ccc(OCc4cccc(F)c4)c(Cl)c3)c2cc1NC(=O)/C=C/CN1C[C@@H]2OCCO[C@@H]2C1 [Example 30, (E)-N-(4-((3-Chloro-4-((3-fluorobenzyl)oxy)phenyl)amino)-7-ethoxyquinazolin-6-yl)-4-((4aR,7aS)-tetrahydro-2H-[1,4]dioxino[2,3-c]pyrrol-6(3H)-yl)but-2-enamide] | 31.9 nM | 6.6 nM | 133 nM | – | – | – | – | – | – | – | – |
| COCCOc1cc2ncnc(Nc3ccc(Cl)c(Cl)c3F)c2cc1NC(=O)/C=C/CN1C[C@@H]2OCCO[C@@H]2C1 [Example 33, (E)-N-(4-((3,4-Dichloro-2-fluorophenyl)amino)-7-(2-methoxyethoxy)quinazolin-6-yl)-4-((4aR,7aS)-tetrahydro-2H-[1,4]dioxino[2,3-c]pyrrol-6(3H)-yl)but-2-enamide] | – | 9.6 nM | – | 1250 ng·h/mL | 890 ng/mL | 1.29 h | 2.77 L/kg | 1370 ng·h/mL | 346 ng/mL | 1.27 h | 44.5% |
| COc1cc2ncnc(Nc3ccc(F)c(Cl)c3F)c2cc1NC(=O)/C=C/CN1C[C@@H]2OCCO[C@@H]2C1 [Example 35, (E)-N-(4-((3-Chloro-2,4-difluorophenyl)amino)-7-methoxyquinazolin-6-yl)-4-((4aR,7aS)-tetrahydro-2H-[1,4]dioxino[2,3-c]pyrrol-6(3H)-yl)but-2-enamide] | 0.9 nM | 17.8 nM | 20 nM | – | – | – | – | – | – | – | – |
